Experimental data published in patent publication US20070031872A1, “A141S and G399S mutation in the Omi/HtrA2 protein in Parkinson's disease” (priority 2004, published 2007).
Peptide text beside a SMILES is read from it. * marks the point of attachment. Cbz = O=C(OCc1ccccc1)*

Tests used:
Assay type in all cases: cell-based
[1] = tested on: HEK293 cells which expressed the exon 7, i.e. the G1195A, mutation (G399S) of Omi/HtrA2; assay: Cytotoxicity test (LDH release) using staurosporin; details: 0.5 μM staurosporin, 6 hours; G399S cells vs wild-type HEK293 cells; FIG. 7
Procedure: (§1) In order to analyze the pathogenetic relevance of the two mutations found in the Omi/HtrA2 gene, the cytotoxicity test was used to investigate whether cells which express the correspondingly genetically modified Omi/HtrA2 protein are more sensitive to cytotoxins, i.e. undergo apoptosis more frequently with corresponding exposure.
(§2) This test was carried out using the cytotoxicity detection kit (LDH) supplied by Roche. The measure of apoptosis used in this case is the lactate dehydrogenase (LDH) released from the cytosol of the apoptotic cells into the surrounding medium after contact with the toxins. This LDH in turn is determined via conversion of a tetrazolium salt into formazan, which can be measured through a change in color from yellow (tetrazolium salt) to red (formazan) using an ELISA reader at a wavelength of 490 nm. The absorption at 650 nm is measured as reference comparison. […]
(§3) In order to detect the total amount of LDH, which is related to the total number of cells per well, then 50 μl of 10% Triton X-100 solution were pipetted into each well in order to lyse the cells which were still alive. […] 100 μl of LDH assay medium were then put in each well to be measured of the 96-well plate and incubated at room temperature for 20 minutes.
(§4) After this incubation time had elapsed, the reaction was stopped by adding 50 μl of 1 N HCl (Sigma) and measured using the ELISA reader. […]

[2] = tested on: SH-SY5Y cells which stably express mutated (S141 or S399) Omi/HtrA2; assay: Mitochondrion function test: mitochondrial membrane potential by JC-1 FACS analysis; details: 0.5 μM staurosporin, 4 hours, FIG. 9
Procedure: The mitochondrial membrane potential was measured by FACS analysis (flow cytometer) using JC-1, as marker of mitochondrial homeostasis in SH-SY5Y cells which stably express the wild-type or mutated (S141 or S399) Omi/HtrA2.
JC-1 is a green fluorescent dye which can be employed to measure the mitochondrial membrane potential. It has the property of diffusing through cellular membranes and is moreover in the form of a monomer which fluoresces green on excitation with a 488 nm laser. In intact mitochondria there is accumulation of the dye owing to the mitochondrial membrane potential, and thus JC-1 aggregates form. The aggregate now re-emits in a red fluorescent wavelength the excitation light and can thus be clearly distinguished both under a microscope and in a flow cytometer from the green fluorescent monomers. […]
In order to differentiate the cell population between green and red fluorescence and to make the adjustment in the flow cytometer, cells without JC-1, with JC-1 and cells with JC-1 treated with CCCP were used. […] It was thus possible after the staining readily to excite only the green fluorescence of the JC-1 monomers, owing to treatment with CCCP. After adjustment of the assay in the flow cytometer, the samples were then measured and evaluated. […]

[3] = tested on: HEK293 cells which expressed the exon 1, i.e. G421T, mutation (A141S) of Omi/HtrA2; assay: Cytotoxicity test (LDH release) using MG132; details: 3.0 μM MG132, 24 hours; A141S cells vs wild-type HEK293 cells; FIG. 8
Procedure: as §1, §2, §3, §4

| Compound | sensitivity to staurosporin relative to wild-type HEK293 cells (LDH release, proportion of dead cells) [1] | decline in the mitochondrial membrane potential (ΔΨm loss) compared with wild-type cells ([2]; Omi/HtrA2 S141 cells) | decline in the mitochondrial membrane potential (ΔΨm loss) compared with wild-type cells ([2]; Omi/HtrA2 S399 cells) | sensitivity to MG132 relative to wild-type HEK293 cells (LDH release, proportion of dead cells) [3] |
| --- | --- | --- | --- | --- |
| CN[C@@H]1C[C@H]2O[C@@](C)([C@@H]1OC)n1c3ccccc3c3c4c(c5c6ccccc6n2c5c31)C(=O)NC4 [staurosporin] | more than five times more sensitive | distinct decline in the mitochondrial membrane potential | distinct decline in the mitochondrial membrane potential | – |
| CC(C)C[C@@H](C=O)NC(=O)[C@H](CC(C)C)NC(=O)[C@H](CC(C)C)NC(=O)OCc1ccccc1 [MG132] (Cbz-Leu-Leu-Leu-aldehyde) | – | – | – | approximately 1.4 times |
